# Reference: patent US6737383B1, “Herbicidal oxadiazolidines” (priority 1999, dated 2004)
# Tests used:
# [1] = tested on: bedstraw; test: Test B pre/postemergence bedstraw; type: in vivo, Galium aparine
# How it was run: (§1)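 Test chemicals in a non-phytotoxic solvent mixture with surfactant were sprayed preemergence onto planted seeds and postemergence onto plants 2 to 18 cm tall (1- to 4-leaf stage). After twelve to sixteen days in a greenhouse, injury was visually rated against untreated controls from 0 (no effect) to 10 (complete control).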
# [2] = tested on: blackgrass; test: Test B pre/postemergence blackgrass; type: in vivo, Alopecurus myosuroides
# How it was run: as §1
# [3] = tested on: surinam grass; test: Test B pre/postemergence surinam grass; type: in vivo, Brachiaria decumbens
# How it was run: as §1
# [4] = tested on: cocklebur; test: Test B pre/postemergence cocklebur; type: in vivo, Xanthium strumarium
# How it was run: as §1
# [5] = tested on: corn; test: Test B pre/postemergence corn; type: in vivo, Zea mays
# How it was run: as §1
# [6] = tested on: crabgrass; test: Test B pre/postemergence crabgrass; type: in vivo, Digitaria sanguinalis
# How it was run: as §1
# [7] = tested on: giant foxtail; test: Test B pre/postemergence giant foxtail; type: in vivo, Setaria faberii
# How it was run: as §1
# [8] = tested on: morningglory; test: Test B pre/postemergence morningglory; type: in vivo, Ipomoea hederacea
# How it was run: as §1
# [9] = tested on: pigweed; test: Test B pre/postemergence pigweed; type: in vivo, Amaranthus retroflexus; settings: for Plant response rating, Redroot pigweed: Postemergence
# How it was run: as §1
# [10] = tested on: rape; test: Test B pre/postemergence rape; type: in vivo, Brassica napus
# How it was run: as §1
# [11] = tested on: soybean; test: Test B pre/postemergence soybean; type: in vivo, Glycine max; settings: for Plant response rating, Soybean: Postemergence
# How it was run: as §1
# [12] = tested on: sugar beet; test: Test B pre/postemergence sugar beet; type: in vivo, Beta vulgaris; settings: for Plant response rating, Sugarbeets: Postemergence
# How it was run: as §1
# [13] = tested on: velvetleaf; test: Test B pre/postemergence velvetleaf; type: in vivo, Abutilon theophrasti; settings: for Plant response rating, Velvetleaf: Postemergence
# How it was run: as §1
# [14] = tested on: wheat; test: Test B pre/postemergence wheat; type: in vivo, Triticum aestivum; settings: for Plant response rating, Wheat: Postemergence
# How it was run: as §1
# [15] = tested on: wild oat; test: Test B pre/postemergence wild oat; type: in vivo, Avena fatua; settings: for Plant response rating, Wild oats: Postemergence
# How it was run: as §1
# [16] = tested on: purple nutsedge; test: Test B pre/postemergence purple nutsedge; type: in vivo, Cyperus rotundus
# How it was run: as §1
# [17] = tested on: rice; test: Test B flood test rice; type: in vivo, Oryza sativa
# How it was run: (§2)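 Flood test on plants grown to the 2-leaf stage; treated plants kept in greenhouse twelve to sixteen days, then visually rated against controls on a 0 (no effect) to 10 (complete control) scale.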
# [18] = tested on: smallflower flatsedge; test: Test B flood test smallflower flatsedge; type: in vivo, Cyperus difformis
# How it was run: as §2
# [19] = tested on: duck salad; test: Test B flood test duck salad; type: in vivo, Heteranthera limosa
# How it was run: as §2
# [20] = tested on: bamyardgrass; test: Test B flood test barnyardgrass; type: in vivo, Echinochloa crus-galli
# How it was run: as §2
# [21] = Postemergence, Rate 62 g/ha, scale of 0 to 10, 0 is no effect, 10 is complete control
# [22] = Postemergence, Rate 125 g/ha, scale 0 to 10, 0 is no effect, 10 is complete control
# [23] = Preemergence, Rate 62 g/ha, scale 0 to 10 (0 no effect, 10 complete control)
# [24] = Preemergence, Rate 500 g/ha, scale of 0 to 10 where 0 is no effect and 10 is complete control
# [25] = Postemergence, Rate 500 g/ha, scale of 0 to 10 where 0 is no effect and 10 is complete control
# [26] = Preemergence, Rate 125 g/ha, scale 0 to 10, 0 is no effect, 10 is complete control
# [27] = Rate 250 g/ha, Postemergence, scale of 0 to 10 where 0 is no effect and 10 is complete control
# [28] = Rate 500 g/ha, scale of 0 to 10 where 0 is no effect and 10 is complete control
# [29] = Rate 250 g/ha, scale of 0 to 10 where 0 is no effect and 10 is complete control
# [30] = Rate 62 g/ha, flood test species, Pre-emergence, visual evaluation after twelve to sixteen days
# [31] = Rate 125 g/ha, under heading Pre-emergence, flood test species, visual evaluation after twelve to sixteen days
# [32] = Rate 250 g/ha, Pre-emergence (flood test species), scale 0 to 10, 0 is no effect, 10 is complete control
# [33] = Rate 500 g/ha, Pre-emergence section of Table B, 0 to 10 scale (0 no effect, 10 complete control)
smiles,measurement,setting,value
CC(C)N(C(=O)n1oc(=O)n(CC2CC2)c1=O)c1ccccc1 [Compound 568],Bedstraw plant response rating,[1]; [21],0
same,Bedstraw plant response rating,[1]; [22],2
same,Bedstraw plant response rating,[1]; [23],0
same,Bedstraw plant response rating (0 to 10 scale),"[1]; Preemergence, Rate 250 g/ha",3
same,Bedstraw plant response rating,[1]; [24],8
same,Blackgrass plant response rating,[2]; [21],8
same,Blackgrass plant response rating,[2]; [22],8
same,"Plant response rating, Blackgrass",[2]; [25],9
same,Blackgrass plant response rating,[2]; [23],5
same,Blackgrass plant response rating,[2]; [26],8
same,Blackgrass plant response rating (0 to 10 scale),"[2]; Preemergence, Rate 250 g/ha",8
same,Blackgrass plant response rating,[2]; [24],9
same,"Plant response rating, Blackgrass",[2]; [27],8
same,B. signalgrass plant response rating,[3]; [21],1
same,B. signalgrass plant response rating,[3]; [22],4
same,"Plant response rating, B. signalgrass",[3]; [25],7
same,B. signalgrass plant response rating,[3]; [23],3
same,B. signalgrass plant response rating,[3]; [26],6
same,"B. signalgrass plant response rating (0 to 10 scale, 0 is no effect, 10 is complete control)","[3]; Preemergence, Rate 250 g/ha",8
same,B. signalgrass plant response rating,[3]; [24],9
same,"Plant response rating, B. signalgrass",[3]; [27],7
same,Cocklebur plant response rating,[4]; [21],1
same,Cocklebur plant response rating,[4]; [22],1
same,"Plant response rating, Cocklebur",[4]; [25],6
same,Cocklebur plant response rating,[4]; [23],0
same,Cocklebur plant response rating,[4]; [26],0
same,Cocklebur plant response rating (0 to 10 scale),"[4]; Preemergence, Rate 250 g/ha",0
same,Cocklebur plant response rating,[4]; [24],2
same,"Plant response rating, Cocklebur",[4]; [27],1
same,Corn plant response rating,[5]; [21],0
same,Corn plant response rating,[5]; [22],0
same,"Plant response rating, Corn",[5]; [25],5
same,Corn plant response rating,[5]; [23],0
same,Corn plant response rating,[5]; [26],4
same,Corn plant response rating (0 to 10 scale),"[5]; Preemergence, Rate 250 g/ha",5
same,Corn plant response rating,[5]; [24],9
same,"Plant response rating, Corn",[5]; [27],4
same,Crabgrass plant response rating,[6]; [21],8
same,Crabgrass plant response rating,[6]; [22],8
same,"Plant response rating, Crabgrass",[6]; [25],9
same,Crabgrass plant response rating,[6]; [23],7
same,Crabgrass plant response rating,[6]; [26],7
same,Crabgrass plant response rating (0 to 10 scale),"[6]; Preemergence, Rate 250 g/ha",9
same,Crabgrass plant response rating,[6]; [24],10
same,"Plant response rating, Crabgrass",[6]; [27],9
same,Giant foxtail plant response rating,[7]; [21],7
same,Giant foxtail plant response rating,[7]; [22],9
same,"Plant response rating, Giant foxtail",[7]; [25],9
same,Giant foxtail plant response rating,[7]; [23],9
same,Giant foxtail plant response rating,[7]; [26],10
same,Giant foxtail plant response rating (0 to 10 scale),"[7]; Preemergence, Rate 250 g/ha",10
same,Giant foxtail plant response rating,[7]; [24],10
same,"Plant response rating, Giant foxtail",[7]; [27],9
same,Morningglory plant response rating,[8]; [21],7
same,Morningglory plant response rating,[8]; [22],10
same,"Plant response rating, Morningglory",[8]; [25],10
same,Morningglory plant response rating,[8]; [23],0
same,Morningglory plant response rating,[8]; [26],0
same,Morningglory plant response rating (0 to 10 scale),"[8]; Preemergence, Rate 250 g/ha",2
same,Morningglory plant response rating,[8]; [24],6
same,"Plant response rating, Morningglory",[8]; [27],10
same,"Plant response rating, Redroot pigweed",[9]; [28],2
same,Redroot pigweed plant response rating,[9]; [23],2
same,Redroot pigweed plant response rating,[9]; [26],4
same,Redroot pigweed plant response rating (0 to 10 scale),"[9]; Preemergence, Rate 250 g/ha",4
same,Redroot pigweed plant response rating,[9]; [24],8
same,"Plant response rating, Redroot pigweed",[9]; [29],0
same,Rape plant response rating,[10]; [21],0
same,Rape plant response rating,[10]; [22],0
same,"Plant response rating, Rape",[10]; [25],3
same,Rape plant response rating,[10]; [23],0
same,Rape plant response rating,[10]; [26],0
same,Rape plant response rating (0 to 10 scale),"[10]; Preemergence, Rate 250 g/ha",5
same,Rape plant response rating,[10]; [24],7
same,"Plant response rating, Rape",[10]; [27],2
same,"Plant response rating, Soybean",[11]; [28],6
same,Soybean plant response rating,[11]; [23],0
same,Soybean plant response rating,[11]; [26],0
same,Soybean plant response rating (0 to 10 scale),"[11]; Preemergence, Rate 250 g/ha",3
same,Soybean plant response rating,[11]; [24],9
same,"Plant response rating, Soybean",[11]; [29],6
same,"Plant response rating, Sugarbeets",[12]; [28],2
same,Sugarbeets plant response rating,[12]; [23],5
same,Sugarbeets plant response rating,[12]; [26],5
same,Sugarbeets plant response rating (0 to 10 scale),"[12]; Preemergence, Rate 250 g/ha",6
same,Sugarbeets plant response rating,[12]; [24],8
same,"Plant response rating, Sugarbeets",[12]; [29],1
same,"Plant response rating, Velvetleaf",[13]; [28],8
same,Velvetleaf plant response rating,[13]; [23],5
same,Velvetleaf plant response rating,[13]; [26],6
same,Velvetleaf plant response rating (0 to 10 scale),"[13]; Preemergence, Rate 250 g/ha",6
same,Velvetleaf plant response rating,[13]; [24],7
same,"Plant response rating, Velvetleaf",[13]; [29],5
same,"Plant response rating, Wheat",[14]; [28],5
same,Wheat plant response rating,[14]; [23],0
same,Wheat plant response rating,[14]; [26],0
same,Wheat plant response rating (0 to 10 scale),"[14]; Preemergence, Rate 250 g/ha",0
same,Wheat plant response rating,[14]; [24],5
same,"Plant response rating, Wheat",[14]; [29],4
same,"Plant response rating, Wild oats",[15]; [28],6
same,Wild oats plant response rating,[15]; [23],5
same,Wild oats plant response rating,[15]; [26],5
same,Wild oats plant response rating (0 to 10 scale),"[15]; Preemergence, Rate 250 g/ha",6
same,Wild oats plant response rating,[15]; [24],8
same,"Plant response rating, Wild oats",[15]; [29],2
same,Nutsedge plant response rating,[16]; [21],0
same,Nutsedge plant response rating,[16]; [22],0
same,"Plant response rating, Nutsedge",[16]; [25],0
same,Nutsedge plant response rating,[16]; [23],0
same,Nutsedge plant response rating,[16]; [26],0
same,Nutsedge plant response rating (0 to 10 scale),"[16]; Preemergence, Rate 250 g/ha",0
same,Nutsedge plant response rating,[16]; [24],3
same,"Plant response rating, Nutsedge",[16]; [27],0
same,"Plant response rating, Rice (0 to 10 scale, 0 is no effect, 10 is complete control)",[17]; [30],1
same,"Rice plant response rating (0 to 10 scale, 0 is no effect, 10 is complete control)",[17]; [31],1
same,Rice plant response rating,[17]; [32],0
same,Rice plant response rating,[17]; [33],0
same,"Plant response rating, S. Flatsedge (0 to 10 scale, 0 is no effect, 10 is complete control)",[18]; [30],0
same,"S. Flatsedge plant response rating (0 to 10 scale, 0 is no effect, 10 is complete control)",[18]; [31],0
same,S. Flatsedge plant response rating,[18]; [32],0
same,S. Flatsedge plant response rating,[18]; [33],4
same,"Plant response rating, Ducksalad (0 to 10 scale, 0 is no effect, 10 is complete control)",[19]; [30],0
same,"Ducksalad plant response rating (0 to 10 scale, 0 is no effect, 10 is complete control)",[19]; [31],0
same,Ducksalad plant response rating,[19]; [32],0
same,Ducksalad plant response rating,[19]; [33],2
same,"Plant response rating, Barnyardgrass (0 to 10 scale, 0 is no effect, 10 is complete control)",[20]; [30],0
same,"Barnyardgrass plant response rating (0 to 10 scale, 0 is no effect, 10 is complete control)",[20]; [31],0
same,Barnyardgrass plant response rating,[20]; [32],3
same,Barnyardgrass plant response rating,[20]; [33],6
